“Also recorded” adds a separate entry of the source.
Tests used:
[1] = cited from earlier work
[2] = Stability of fosaprepitant in a human serum albumin (HSA) solution, visual clarity; format: physicochemical; conditions: for appearance of solution initially: 25° C.; for appearance of solution over time: after 1, 2, 3, 4, 6, 8 and 24 hours at 25° C.
Experimental: To 3 different vials containing 25 mg of fosaprepitant dimeglumine each were added 1 ml of 10% HSA solution (w/v), 1 ml of 5% HSA solution (w/v), and 1 ml of 2% HSA solution (w/v), respectively, at 25° C.

[3] = pH value of the aqueous solution with or without HSA; format: physicochemical; conditions: about 25° C.
Experimental: 245.3 mg of fosaprepitant dimeglumine and 0.28 mg of palonosetron hydrochloride were dissolved in methanol, and then methanol was removed from the solution to give a white solid.

[4] = 25 mg in 1 ml of 2% HSA solution (w/v)
[5] = 25 mg in 1 ml of 5% HSA solution (w/v)
[6] = 25 mg in 1 ml of 10% HSA solution (w/v)

Compound	solubility in acetonitrile ([1]; acetonitrile)	solubility in ethanol ([1]; ethanol)	solubility in isopropyl acetate ([1]; isopropyl acetate)	solubility in water [1]	appearance of solution initially [2, 4]	appearance of solution over time [2, 4]	appearance of solution initially [2, 5]	appearance of solution over time [2, 5]	appearance of solution initially [2, 6]	appearance of solution over time [2, 6]	pH value of the clear aqueous solution ([3]; 24.5 mg in 15 ml of 0.9% saline solution)	pH value of the clear aqueous solution ([3]; 24.5 mg in 15 ml of HSA solution (0.5 ml of 20% HSA + 14.5 ml of 0.9% saline))
C[C@@H](O[C@H]1OCCN(Cc2n[nH]c(=O)[nH]2)[C@H]1c1ccc(F)cc1)c1cc(C(F)(F)F)cc(C(F)(F)F)c1 [Aprepitant, aprepitant]	slightly soluble	sparingly soluble	sparingly soluble	practicallyinsoluble; also recorded: insoluble								
C[C@@H](O[C@H]1OCCN(Cc2nn(P(=O)(O)O)c(=O)[nH]2)[C@H]1c1ccc(F)cc1)c1cc(C(F)(F)F)cc(C(F)(F)F)c1 [fosaprepitant dimeglumine]					clear aqueous solution	stayed clear	clear aqueous solution	stayed clear	clear aqueous solution	stayed clear	7.70	7.15
C[C@@H](O[C@H]1OCCN(Cc2nc(O)n(P(=O)(O)O)n2)[C@H]1c1ccc(F)cc1)c1cc(C(F)(F)F)cc(C(F)(F)F)c1 [fosaprepitant]				soluble								

From patent US20220226444A1, “FORMULATIONS OF FOSAPREPITANT AND APREPITANT” (Zhuhai Beihai Biotech Co., Ltd., priority 2016, published 2022)
